Measurements as given in the NIST ThermoML archive (doi:10.1016/j.tca.2012.07.034).

Settings: Liquid, DSC

CCCCCCCC/C=C\CCCCCCCC(=O)O [(Z)-9-octadecenoic acid]
Settings	vapor or sublimation pressure [kPa]
496.7 K	1.333
513.1 K	2.666
524.7 K	4
532.1 K	5.333
538.8 K	6.666
543.8 K	7.999
547.4 K	9.333

CCCCCCCCCCCC(=O)O [dodecanoic acid]
Settings	vapor or sublimation pressure [kPa]
444.6 K	1.333
458.9 K	2.666
468.5 K	4
475 K	5.333
479.6 K	6.666
484.8 K	7.999
490.5 K	9.333

CCCCCCCCCCCCCCCC(=O)O [hexadecanoic acid]
Settings	vapor or sublimation pressure [kPa]
483.3 K	1.333
498.6 K	2.666
509 K	4
517.3 K	5.333
523.4 K	6.666
527.9 K	7.999
533.4 K	9.333

CCCCCCCCCCCCCCCCCC(=O)O [octadecanoic acid]
Settings	vapor or sublimation pressure [kPa]
501.3 K	1.333
519.1 K	2.666
528.9 K	4
535.9 K	5.333
543.7 K	6.666
548.7 K	7.999
553.2 K	9.333

CCCCCCCCCCCCCC(=O)O [tetradecanoic acid]
Settings	vapor or sublimation pressure [kPa]
464.6 K	1.333
480.8 K	2.666
489.5 K	4
497.2 K	5.333
503.1 K	6.666
508.2 K	7.999
512.6 K	9.333
